Test: Safety evaluation in the drug-drug interaction study (adverse events, clinical laboratory, vital signs, physical examination)
Assay type: in vivo, human
Conditions: omeprazole 40 mg with ethyl eicosapentaenoate 4 g/day, healthy subjects
From the text: Safety evaluations consisted of monitoring adverse events (AEs), clinical laboratory measurements (chemistry, hematology, and urinalysis), vital signs (systolic and diastolic blood pressure, heart rate, respiratory rate and oral body temperature), and physical examination findings.

## COc1ccc2[nH]c([S+]([O-])Cc3ncc(C)c(OC)c3C)nc2c1 (stereo not drawn) [Omeprazole, omeprazole]
  Premature discontinuation due to an adverse event: no subjects prematurely discontinued
  Safety and tolerability of concomitant administration: safe and well-tolerated
  Serious adverse events: No serious adverse events

## CC/C=C\C/C=C\C/C=C\C/C=C\C/C=C\CCCC(=O)OCC [ethyl eicosapentaenoate, all-cis eicosa-5,8,11,14,17-pentaenoic acid ethyl ester]
  Premature discontinuation due to an adverse event: no subjects prematurely discontinued
  Safety and tolerability of concomitant administration: safe and well-tolerated
  Serious adverse events: No serious adverse events
